The target of assay [1] is T1, D2 receptor (Homo sapiens, UniProt P14416).
T1 construct: expressed in transfected cells
The assay can be described thus: Binding affinity at cloned human D2 receptor, [3H]YM-09151-2 (CHOp-D2 cells). As to the method: (§1) CHOp-cells (human receptors) are grown to confluence in a minimum essential medium (α MEM) containing 10% fetal calf serum, 0.05% pen-strep, and 600 μg/ml of G418. The cells are scraped from the 100 by 20 mm plates and centrifuged at 500. g for 5 min. The pellet is homogenized by polytron in 50 mM Tris-HCl, pH 7.7, and centrifuged at 27,000·G for 12 min. The pellet is resuspended in 50 mM Tris, D2 at 5 mg protein/ml, D3 at 1 mg protein/ml, and stored at −70° C. in 1-ml aliquots.
(§2) On the day of the experiment, CHOp-D2 or CHOp-D3 cells are thawed, resuspended in 50 mM Tris, and centrifuged at 27,000·G for 12 min. The pellet is then resuspended at 5 mg protein/80 ml (D2) and 1 mg protein/80 ml (D3) in 50 mM Tris containing 120 mM of NaCl, 5 mM of KCl, 1.5 mM of CaCl2, 4 mM of MgCl2, and 1 mM of EDTA, pH 7.4. […] Nonspecific binding is determined with 1 mM of chlorpromazine. The plates are incubated at 25° C. for 60 min before filtration and counted as usual. The filters are soaked in 0.1% PEI before filtering.

A further assay concerns the target T2, 5HT1A receptor (Homo sapiens, UniProt P08908).
T2 construct: expressed in transfected cells; host or cells: HA7 cells
T2 sequence (P08908 1-422): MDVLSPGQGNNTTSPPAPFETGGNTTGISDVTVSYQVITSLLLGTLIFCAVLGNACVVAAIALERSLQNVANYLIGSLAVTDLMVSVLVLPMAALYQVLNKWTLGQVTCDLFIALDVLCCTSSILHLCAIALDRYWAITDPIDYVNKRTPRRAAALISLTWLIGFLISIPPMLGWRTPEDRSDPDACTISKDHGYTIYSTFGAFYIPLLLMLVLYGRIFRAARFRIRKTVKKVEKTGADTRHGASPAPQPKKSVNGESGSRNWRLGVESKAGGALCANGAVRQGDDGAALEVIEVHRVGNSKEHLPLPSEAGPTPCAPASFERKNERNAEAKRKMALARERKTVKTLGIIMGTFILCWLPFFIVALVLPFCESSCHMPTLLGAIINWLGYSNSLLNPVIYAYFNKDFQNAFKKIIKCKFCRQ
The assay can be described thus: Binding affinity at cloned human 5HT1A receptor, [3H]8-OH-DPAT (HA7 cells). As to the method:
HA7 cells (human receptor) are grown to confluence in DMEM containing 10% fetal calf serum, 0.05% penicillin-streptomycin (pen-strep), and […] of G418. The cells are scraped from the 100 by 20 mm plates and centrifuged at 500·G for 5 min. The pellet is homogenized in 50 mM Tris-HCl, pH 7.7, with a polytron, centrifuged at 27,000·G and resuspended at 10 mg protein/ml in the same buffer. The homogenate is then stored at −70° C. in 1-ml aliquots.
The thawed cells are washed once and resuspended at 10 mg protein/80 ml in 25 mM Tris-HCl containing 100 μM of ascorbic acid and 10 mM of nialamide at pH 7.4. The assay is performed in triplicate in a 96-well plate. To 100 μl of [^3H]8-OH-DPAT (0.5 nM final conc), […] of test compound or buffer and 0.8 ml of cell homogenate (0.1 mg protein/well) is added to each well by a Tomtec Quadra 96. Nonspecific binding is defined using 1 μM dihydroergotamine. The plates are incubated at 25° C. for 60 min, then filtered. The incubation is terminated by rapid filtration through glass fiber filter paper on a Tomtec cell harvester. The filters are washed four times with ice-cold 50 mM Tris-HCl, pH 7.7, dried overnight, bagged with 10 ml scintillation cocktail before counting for 2 min. on a Wallac Betaplate 1205 liquid scintillation counter.

A further assay deals with T3, 5HT2A receptor (Homo sapiens, UniProt P28223).
T3 construct: expressed in transfected cells
T3 sequence (P28223 whole entry): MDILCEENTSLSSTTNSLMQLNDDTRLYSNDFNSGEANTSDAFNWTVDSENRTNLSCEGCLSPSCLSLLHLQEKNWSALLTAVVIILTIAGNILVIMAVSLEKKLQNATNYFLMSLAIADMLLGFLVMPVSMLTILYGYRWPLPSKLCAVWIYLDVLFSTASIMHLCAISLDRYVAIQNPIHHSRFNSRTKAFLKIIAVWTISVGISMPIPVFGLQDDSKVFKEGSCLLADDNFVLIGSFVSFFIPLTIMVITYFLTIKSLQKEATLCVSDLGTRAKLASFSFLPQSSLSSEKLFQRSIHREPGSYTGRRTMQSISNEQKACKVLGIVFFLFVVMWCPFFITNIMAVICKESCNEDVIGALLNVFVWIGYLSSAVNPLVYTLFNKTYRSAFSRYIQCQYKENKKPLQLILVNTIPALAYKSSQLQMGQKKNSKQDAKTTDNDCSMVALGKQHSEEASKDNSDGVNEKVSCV
The assay can be described thus: Binding affinity at cloned human 5HT2A receptor, [3H]Ketanserin.

The target of assay [2] is T1, D2 receptor. The assay can be described thus: Agonist potency by [3H]thymidine incorporation (mitogenesis), D2. The note with it: [3H]thymidine incorporation; for Emax: >80% full agonist, read-out: D2 % Maxm Stim. It counts as cell-based. The method, then: Potential as domaminergenic agonists was assayed by ^3H-thymidine incorporation by standard techniques.
The EC50 values thus indicate intrinsic activities or functional activities of these compounds. The value of % maximum stimulation indicates whether a compound is a partial agonist or full agonist. Generally, a value greater than 80% is considered as a full agonist and anything less than 80% is considered as a partial agonist.
For orientation: Dividing cells build labelled thymidine or BrdU into new DNA.

Another assay has as its target D3 receptor (Homo sapiens, UniProt P35462). The assay can be described thus: Binding affinity at cloned human D3 receptor, [3H]YM-09151-2 (CHOp-D3 cells). Conditions: for Ki: cloned human D3; for D2/D3: ratio of Ki D2 to Ki D3, [3H]YM-09151-2 protocol of Table 4. Also noted: expressed in transfected cells; host or cells: CHOp-D3 cells. The method, then: as §1, §2
The next assay concerns the target T4, D4 receptor (Homo sapiens, UniProt P21917).
T4 sequence (P21917 1-419): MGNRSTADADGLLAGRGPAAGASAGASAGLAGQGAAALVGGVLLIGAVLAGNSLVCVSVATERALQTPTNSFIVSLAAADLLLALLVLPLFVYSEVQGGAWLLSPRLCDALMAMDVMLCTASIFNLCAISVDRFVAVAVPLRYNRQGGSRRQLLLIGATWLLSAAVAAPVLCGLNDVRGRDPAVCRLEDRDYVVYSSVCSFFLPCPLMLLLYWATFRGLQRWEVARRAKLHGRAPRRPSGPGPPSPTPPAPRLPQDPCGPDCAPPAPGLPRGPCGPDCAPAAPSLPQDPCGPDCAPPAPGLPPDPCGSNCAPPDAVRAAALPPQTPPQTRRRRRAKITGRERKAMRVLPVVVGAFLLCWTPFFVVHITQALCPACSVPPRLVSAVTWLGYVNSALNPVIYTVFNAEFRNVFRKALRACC
The assay can be described thus: Binding affinity at cloned human D4 receptor, [3H]YM-09151-2 (CHO D4.4 cells). On the set-up: expressed in transfected cells; host or cells: CHO D4.4 cells. Conditions: for Ki: cloned human D4. As to the method:
CHO D4.4 cells (human receptors) are grown to confluence in D4 Puromycin medium containing 2 μg/ml puromycin, 5% fetal calf serum and 5 supplemented calf serum and 0.5% pen-strep. The cells are harvested as described for D2 and D3 cells and used at a concentration of 0.15 mg protein/well in the [^3H]YM-09151-2 binding assay.

Chain of D3 receptor (P35462 whole entry): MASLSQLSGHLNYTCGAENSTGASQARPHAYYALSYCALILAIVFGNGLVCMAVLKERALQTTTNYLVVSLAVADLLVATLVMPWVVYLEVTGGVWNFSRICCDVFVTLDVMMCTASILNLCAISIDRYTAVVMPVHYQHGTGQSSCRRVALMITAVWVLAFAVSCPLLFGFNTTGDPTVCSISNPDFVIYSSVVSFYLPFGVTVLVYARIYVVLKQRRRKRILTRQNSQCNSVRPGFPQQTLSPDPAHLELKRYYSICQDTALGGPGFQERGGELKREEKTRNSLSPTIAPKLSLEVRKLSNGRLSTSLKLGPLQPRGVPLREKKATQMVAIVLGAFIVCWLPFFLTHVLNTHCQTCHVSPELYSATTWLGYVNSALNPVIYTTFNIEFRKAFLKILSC
T1 sequence (P14416 whole entry): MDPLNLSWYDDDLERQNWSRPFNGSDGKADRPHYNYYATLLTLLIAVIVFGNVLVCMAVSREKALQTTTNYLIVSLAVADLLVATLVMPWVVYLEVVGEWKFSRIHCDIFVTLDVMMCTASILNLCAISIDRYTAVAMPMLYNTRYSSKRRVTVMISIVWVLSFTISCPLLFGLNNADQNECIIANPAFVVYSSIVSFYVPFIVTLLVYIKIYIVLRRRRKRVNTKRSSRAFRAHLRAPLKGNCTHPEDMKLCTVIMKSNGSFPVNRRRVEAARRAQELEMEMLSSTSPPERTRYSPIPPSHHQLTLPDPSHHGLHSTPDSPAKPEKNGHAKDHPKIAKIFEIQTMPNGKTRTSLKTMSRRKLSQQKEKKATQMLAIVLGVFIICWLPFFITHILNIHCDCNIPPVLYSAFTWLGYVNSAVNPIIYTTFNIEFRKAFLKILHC

For orientation: Ki means the dissociation constant of the complex between target and ligand, obtained from inhibition or displacement. The EC50 is the concentration that produces a half-maximal response. Low readings indicate higher potency in that assay, high ones lower potency in that assay. For `N#CCCCN(CCCCN1CCN(c2ccccc2)CC1)C1CCc2ccc(O)cc2C1` (stereo not drawn) [Compound 8, 7-Hydroxy-2-[N-butyonitrile-(N-(4-phenylpiperazin-1-yl)-butyl)amino]tetralin], the inhibitory constant (Ki) on D2 receptor [1] is 89.8 ± 32.5 nM; at 5HT1A receptor, 88.31 ± 0.4 nM; on 5HT2A receptor, 701 ± 16.8 nM; on D3 receptor, 75.8 ± 6.29 nM; on D4 receptor, 142 ± 6.5 nM. At D2 receptor [2], this molecule displayed a concentration giving a half-maximal response (EC50) of 74.5 ± 32.9 nM. On D2 receptor [2], the Emax worked out at 54.1 ± 4.82%. Besides, the D2/D3 on D3 receptor amounted to 1.18.
With `O=C(NCCCCN(CCCCN1CCN(c2ccccc2)CC1)C1CCc2ccc(O)cc2C1)c1ccccc1` (stereo not drawn) [Compound 10a, 7-Hydroxyl-2-[N-(4-benzoylaminobutyl)-(N-(4-phenylpiperazin-1-yl)-butyl)amino]tetralin], the inhibitory constant (Ki) on D2 receptor [1] stood at 119 ± 1.45 nM; at 5HT1A receptor, 171 ± 32.2 nM; on 5HT2A receptor, 1230 ± 217 nM; on D3 receptor, 313 ± 6.47 nM; on D4 receptor it was 137 ± 10.2 nM. Also, the half-maximal effective concentration (EC50) on D2 receptor [2] was found to be 115 ± 20.2 nM. In addition, the Emax at D2 receptor [2] is 44.9 ± 0.84%. Further, the D2/D3 on D3 receptor was determined as 0.38.
Consider `O=C(NCCN(CCCCN1CCN(c2ccccc2)CC1)C1CCc2ccc(O)cc2C1)c1ccccc1` (stereo not drawn) [Compound 10b, 7-Hydroxy-2-[N-(2-benzoylamino)ethyl-(N-(4-phenylpiperazin-1-yl)-butyl)amino]tetralin], for which the Ki was 111 ± 32.2 nM at D2 receptor [1]; 164 ± 27.5 nM at 5HT1A receptor; 287 ± 50.2 nM at 5HT2A receptor; 84.6 ± 1.55 nM on D3 receptor; 35.6 ± 1.42 nM at D4 receptor. The same molecule came in with an EC50 on D2 receptor [2] of 97.2 ± 47.7 nM. Also, at D2 receptor [2], the Emax came out at 27 ± 5.54%. Besides, the D2/D3 on D3 receptor is reported as 1.30.
With `CCCN(CCCCN1CCN(c2ccccc2)CC1)C1CCc2ccc(O)cc2C1` (stereo not drawn) [Compound 15b, 7-Hydroxyl-2-[N-propyl-(N-(4-phenylpiperazin-1-yl)-butyl)amino]tetralin], the inhibitory constant (Ki) came to 3.37 ± 0.78 nM on D2 receptor [1]; 18.5 ± 2.46 nM on 5HT1A receptor; 1780 ± 614 nM at 5HT2A receptor; 3.47 ± 0.08 nM on D3 receptor; 25.7 ± 25.7 nM on D4 receptor. The same molecule returned an EC50 at D2 receptor [2] of 3.21 ± 0.46 nM. Also, the Emax at D2 receptor [2] is 121 ± 26.1%. For the same molecule, the D2/D3 on D3 receptor came to 1. Besides, on D4 receptor, the “affinity at the D4 receptor” value is recorded as “good affinity”.

The record behind these values is patent publication US8227604B2, “Hybrid 2-aminotetralin and aryl-substituted piperazine compounds and their use in altering CNS activity” (Wayne State University, priority 2001, dated 2012).
